# Assay results reported in patent US20250262193A1, “Therapeutic Tyrosine Kinase Inhibitors For Multiple Sclerosis and Myasthenia Gravis” (Principia Biopharma Inc., priority 2022, published 2025).
# How the values were obtained:
# [1] = Drug interaction study INT16385: potent CYP3A4 inhibitor itraconazole, healthy participants; type: in vivo, human; settings: with potent CYP3A4 inhibitor itraconazole 200 mg once daily for 4 days
# [2] = Phase 2b dose-finding trial DRI15928 in participants with relapsing multiple sclerosis; type: in vivo, human; settings: for alanine aminotransferase (ALT): 1 participant, normal range 6 to 34 U/L; for time for ALT to return to normal range: treatment continued
# From the text: All safety summaries will be descriptive; no statistical significance tests will be performed on safety data. This includes treatment-emergent adverse events (TEAEs) and other safety information (eg, clinical laboratory evaluations, electrocardiograms [ECGs], and vital signs). TEAEs are defined as adverse events (AEs) that developed or worsened or became serious during the treatment period. These analyses will be based on the safety population, defined as all participants randomly assigned and exposed to study intervention, regardless of the amount of exposure, analyzed according to the treatment actually received. • Two participants had treatment-emergent transient alanine aminotransferase (ALT) increase >3×ULN, 1 during the 30 mg SAR442168 treatment period (at Week 8, 105 U/L [normal range 6 to 34 U/L]) that returned to normal range within 4 days and 1 during the 60 mg SAR442168 treatment period (at Week 4, 107 U/L [normal range 6 to 34 U/L]). The participant in the 60 mg group had slightly elevated ALT at screening (48 U/L) and at baseline (50 U/L); ALT levels returned to the normal range in 8 weeks. Both participants continued study treatment during this period. All other liver enzyme levels for both participants were within normal ranges during the treatment period; one event was assessed as related and one as unrelated to the study drug by the Investigators. Both participants completed the DRI15928 study and successfully rolled over to the LTS follow-up study. • One event of mild petechia in a participant (at Week 8 in the SAR442168 30 mg group) and 2 events of mild microscopic hematuria in 2 male participants (1 event at Week 16 in the SAR442168 30 mg group and 1 event on Day 1 in the SAR442168 60 mg group, with occult blood noted in urine) were reported during the treatment period in the SAR442168 Phase 2b trial. The hematology results were clinically insignificant for all 3 participants from the onset of the events. The participant with mild petechia had benign pigmentary lesions noted during screening, and the event was assessed as related to the study drug by the Investigator. The 2 events of mild microscopic hematuria were assessed as unrelated to the study drug.
# The choice of the dose of 60 mg of the BTK inhibitor taken with food is based on the results of a Phase 2b dose-finding trial for tolebrutinib in participants with relapsing multiple sclerosis (DRI15928). See for example, Reich, D. S., et al., Safety and efficacy of tolebrutinib, an oral brain-penetrant BTK inhibitor, in relapsing multiple sclerosis: a phase 2b, randomised, double-blind, placebo-controlled trial. Lancet Neurol, 2021. 20(9): p. 729-738.
# There were low numbers of AESIs and PCSAs observed.
# [3] = Study TDR16862: up to 240 mg once daily for 14 days under fed conditions, healthy participants; type: in vivo, human
# Protocol: (§1) Tolebrutinib is a substrate of the CYP3A4 and CYP2C8 isoenzymes. […] In healthy participants, the potent CYP3A4 and moderate CYP2C8 induction by rifampicin (600 mg once daily for 8 days) decreased tolebrutinib exposure by 6-fold. Therefore, potent and also moderate (based on prediction) CYP3A inducers are not permitted due to their potential to decrease tolebrutinib exposure and efficacy.
# (§2) Potent and moderate inducers of CYP3A or potent inhibitors of CYP2C8 hepatic enzymes are not permitted throughout the study (see Appendix 8A [Section 10.8]). • Tolebrutinib: Tolebrutinib is a substrate of the CYP3A4 and CYP2C8 isoenzymes. […] In healthy participants, potent CYP3A4 and moderate CYP2C8 induction by rifampicin (600 mg once daily for 8 days) decreased Tolebrutinib exposure 6-fold (INT16726 study). Therefore, potent and also moderate (based on prediction) CYP3A inducers are not permitted due to their potential to decrease Tolebrutinib exposure and efficacy. See Table 2H for the list of drugs not to be used. • Teriflunomide: Other potent CYP and transporter inducers should be avoided due to their potential to decrease teriflunomide exposure. Rifampicin and other known potent CYP and transporter inducers such as carbamazepine, phenobarbital, phenytoin, avasimibe, lumacaftor, rifapentine, rifabutin, and St John's wort, should be avoided. […]
# [4] = Drug interaction study INT16726: potent CYP2C8 inhibitor gemfibrozil; CYP3A4/CYP2C8 inducer rifampicin, healthy participants; type: in vivo, human
# Protocol: as §1, §2
# [5] = Blood-brain barrier crossing
# [6] = Ongoing Phase 3 and LTS studies: safety (drug-induced liver injury); type: in vivo, human
# From the text: Drug-induced liver injury has been identified in the ongoing tolebrutinib Phase 3 trials. […] Thus, there is a need to mitigate the risk of hepatic injury and provide safe treatment for patients with MS or MG.
# All safety summaries will be descriptive; no statistical significance tests will be performed on safety data. This includes treatment-emergent adverse events (TEAEs) and other safety information (eg, clinical laboratory evaluations, electrocardiograms [ECGs], and vital signs). TEAEs are defined as adverse events (AEs) that developed or worsened or became serious during the treatment period. These analyses will be based on the safety population, defined as all participants randomly assigned and exposed to study intervention, regardless of the amount of exposure, analyzed according to the treatment actually received. • Two participants had treatment-emergent transient alanine aminotransferase (ALT) increase >3×ULN, 1 during the 30 mg SAR442168 treatment period (at Week 8, 105 U/L [normal range 6 to 34 U/L]) that returned to normal range within 4 days and 1 during the 60 mg SAR442168 treatment period (at Week 4, 107 U/L [normal range 6 to 34 U/L]). […] All other liver enzyme levels for both participants were within normal ranges during the treatment period; one event was assessed as related and one as unrelated to the study drug by the Investigators. […]
# [7] = target: CYP3A4 (Homo sapiens, UniProt P08684); assay: Nonclinical drug metabolism studies (CYP substrate); type: in vitro ADME
# Protocol: as §1, §2
# [8] = target: T1, CYP2C8 (Homo sapiens, UniProt P10632); assay: as above; type: in vitro ADME
# T1 sequence (P10632 1-490): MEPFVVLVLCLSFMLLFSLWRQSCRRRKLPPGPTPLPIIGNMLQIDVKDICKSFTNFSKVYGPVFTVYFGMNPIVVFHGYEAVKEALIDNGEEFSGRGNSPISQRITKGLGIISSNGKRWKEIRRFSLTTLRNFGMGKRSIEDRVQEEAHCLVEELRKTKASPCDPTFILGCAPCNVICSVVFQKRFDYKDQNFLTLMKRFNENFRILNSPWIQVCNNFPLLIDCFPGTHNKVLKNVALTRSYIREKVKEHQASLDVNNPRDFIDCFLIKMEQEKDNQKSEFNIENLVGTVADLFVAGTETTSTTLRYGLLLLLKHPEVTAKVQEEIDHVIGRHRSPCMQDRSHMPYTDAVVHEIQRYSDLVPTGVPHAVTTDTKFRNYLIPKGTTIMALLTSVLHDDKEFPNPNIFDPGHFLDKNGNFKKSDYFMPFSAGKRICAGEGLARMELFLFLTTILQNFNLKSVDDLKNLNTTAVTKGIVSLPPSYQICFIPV
# Protocol: as §1, §2
# [9] = following repeated doses of teriflunomide; cited from earlier work
# [10] = target: T2, BCRP (Homo sapiens, UniProt Q9UNQ0); settings: in vitro studies; cited from earlier work
# T2 sequence (Q9UNQ0 1-655): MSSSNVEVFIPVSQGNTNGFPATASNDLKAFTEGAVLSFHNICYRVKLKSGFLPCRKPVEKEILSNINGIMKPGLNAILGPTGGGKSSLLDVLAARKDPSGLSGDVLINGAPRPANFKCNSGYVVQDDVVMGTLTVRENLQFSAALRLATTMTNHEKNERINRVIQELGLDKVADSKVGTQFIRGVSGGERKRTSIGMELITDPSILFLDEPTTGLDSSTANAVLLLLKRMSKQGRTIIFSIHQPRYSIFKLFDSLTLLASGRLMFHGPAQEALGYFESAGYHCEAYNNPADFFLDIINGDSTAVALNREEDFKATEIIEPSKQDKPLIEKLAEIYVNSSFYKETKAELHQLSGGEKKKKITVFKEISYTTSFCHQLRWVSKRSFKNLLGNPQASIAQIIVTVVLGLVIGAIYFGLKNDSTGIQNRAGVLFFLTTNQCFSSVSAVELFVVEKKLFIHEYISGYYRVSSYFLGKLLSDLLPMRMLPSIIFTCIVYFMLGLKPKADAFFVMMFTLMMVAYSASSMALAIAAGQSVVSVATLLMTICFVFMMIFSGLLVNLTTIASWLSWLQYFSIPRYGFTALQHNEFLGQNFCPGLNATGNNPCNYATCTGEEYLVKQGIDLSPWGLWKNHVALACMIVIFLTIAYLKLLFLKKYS
# CYP3A4, sequence (P08684 whole entry): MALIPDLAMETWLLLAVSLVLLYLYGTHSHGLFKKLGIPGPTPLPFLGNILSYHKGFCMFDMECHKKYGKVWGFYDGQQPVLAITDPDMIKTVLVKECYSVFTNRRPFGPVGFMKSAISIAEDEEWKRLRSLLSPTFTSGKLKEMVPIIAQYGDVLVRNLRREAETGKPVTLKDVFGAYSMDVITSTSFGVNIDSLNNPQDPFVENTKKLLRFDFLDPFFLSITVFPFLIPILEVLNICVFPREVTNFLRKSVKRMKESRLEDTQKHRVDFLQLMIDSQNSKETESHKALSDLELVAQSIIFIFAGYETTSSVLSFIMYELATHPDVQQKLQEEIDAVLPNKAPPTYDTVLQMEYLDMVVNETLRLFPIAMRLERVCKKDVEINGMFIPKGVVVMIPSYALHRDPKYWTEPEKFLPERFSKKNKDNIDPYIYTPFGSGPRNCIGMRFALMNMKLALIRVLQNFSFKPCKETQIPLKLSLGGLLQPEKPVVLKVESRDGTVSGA
smiles,measurement,setting,value
"C=CC(=O)N1CCC[C@@H](n2c(=O)n(-c3ccc(Oc4ccccc4)cc3)c3c(N)nccc32)C1 [tolebrutinib, (R)-1-(1-acryloylpiperidin-3-yl)-4-amino-3-(4-phenoxyphenyl)-1H-imidazo[4,5-c]pyridin-2(3H)-one]",increase of area under the curve (AUC) exposure,[1],1.8 fold
same,alanine aminotransferase (ALT),"[2]; 30 mg treatment period, Week 8",105 U/L
same,alanine aminotransferase (ALT),"[2]; 60 mg treatment period, Week 4, 48 U/L at screening, 50 U/L at baseline",107 U/L
same,events of mild microscopic hematuria,"[2]; 2 male participants: Week 16 in 30 mg group, Day 1 in 60 mg group, resolved spontaneously",2 events
same,cardiac arrhythmia,[2]; ECG monitoring,no clinically significant cardiac arrhythmia was observed
same,AESIs and PCSAs observed,[2]; Phase 2b,low numbers
same,correlation between dose administered and number of TEAEs,[2]; Phase 2b,no correlation
same,new risks identified,[2]; Phase 2b,no new risks were identified
same,most frequently reported infections (≥3 events total),[2]; Phase 2b treatment period,"upper respiratory tract infection, nasopharyngitis, gastroenteritis, and respiratory tract infection"
same,severe infections,[2]; Phase 2b treatment period,No severe infections occurred
same,participants with treatment-emergent transient ALT increase >3×ULN,"[2]; Phase 2b, 1 at 30 mg, 1 at 60 mg",Two
same,food effect: increase in AUC0-24,"[2]; fed status, Phase 2b PK data",approximately 2 fold
same,events of mild petechia,"[2]; female participant, Week 8, 30 mg group, resolved spontaneously",One
same,"cytopenia, including thrombocytopenia and neutropenia",[2]; hematologic laboratory results,No clinically significant cytopenia
same,correlation between treatment response and exposure,[2]; new gadolinium-enhancing T1-hyperintense lesions after 12 weeks of treatment,higher exposure was associated with low numbers of new gadolinium-enhancing T1-hyperintense lesions
same,time for ALT to return to normal range,[2]; participant of the 30 mg treatment period,≤ 4 days
same,time for ALT to return to normal range,[2]; participant of the 60 mg group,8 weeks
same,most common events (preferred terms),"[2]; tolebrutinib treatment arms, Phase 2b","headache, upper respiratory tract infection, and nasopharyngitis"
same,safety and tolerability profile,[3],satisfactory
same,decrease of exposure,[4]; potent CYP3A4 and moderate CYP2C8 induction by rifampicin 600 mg once daily for 8 days,6 fold
same,increase of AUC exposure,[4]; with potent CYP2C8 inhibitor gemfibrozil 600 mg twice daily for 6 days,8.4 fold
same,blood-brain barrier crossing,[5],crosses the blood-brain barrier
same,tolerability,"[6]; ongoing Phase 3 and LTS studies, to date",generally well tolerated
same,reversibility of DILI / liver enzyme elevation after treatment discontinuation,[6]; ongoing Phase 3 trials,appear reversible
same,substrate of CYP3A4 isoenzyme,[7],substrate
same,substrate of CYP2C8 isoenzyme,[8],substrate
C/C(O)=C(\C#N)C(=O)Nc1ccc(C(F)(F)F)cc1 [teriflunomide],ethinylestradiol and levonorgestrel exposure,[9],Increase
same,substrate of the efflux transporter BCRP,[10],substrate
